Assay results taken from patent US11648289B2, “Antibacterial method” (priority 2016, dated 2023).
No end group written: not given here.

What was measured:
Listeria spp. (3) = settings: Listeria spp. (3), Table 6B
Protocol: (§1) All the strains (see below) used in minimal inhibitory concentration (MIC) assays (Ovchinnikov et al., 2017, Front Microbiol., 8, p774, doi:10.3389/fmicb.2017.00774) were grown in BHI medium (Oxoid) at 30° C. without shaking. The tested strains were obtained from the LMG collection. […] NisinZ and micrococcin P1 were purified from source. Synthesized peptides were solubilized to concentrations of 10.0-0.1 mg/ml in 0.1% (vol/vol) trifluoroacetic acid and stored at −20° C. until use. Garvicin KS is made up of 3 peptides:
(§2) Bacteriocin activity was determined using a microtitre plate assay. The plates were incubated at 30° C. for 8 h and the growth was measured spectrophotometrically at 600 nm (A600) with 15 min intervals using SPECTROstarNano (BMG LABTECH, Germany). The MIC was defined as the bacteriocin concentration that inhibited the growth of the indicator strain by at least 50% in 200 μl culture (i.e., 50% of the turbidity of the control culture without bacteriocin).

E. faecium (2) = settings: E. faecium (2), Table 6B
Protocol: as §1, §2

E. faecalis (2) = settings: E. faecalis (2), Table 6B
Protocol: as §1, §2

E. hirae (4) = settings: E. hirae (4), Table 6B
Protocol: as §1, §2

[1] = system: E. faecium and E. faecalis; settings: 20 μl of 1 mg/ml bacteriocin on soft agar, overnight, 30° C. vs 45° C.
E. faecium AH137 = settings: E. faecium AH137, isolated from blood
Protocol: (§3) Bacterial strains, growth conditions, bacteriocins and antimicrobial assays. All the strains (see below) used in minimal inhibitory concentration (MIC) assays (Varahan et al., 2014, M. Bio. 5:e01726-01714) were grown in BHI medium (Oxoid) at 30° C. without shaking. A collection of E. faecium strains isolated from blood in patients from different European hospitals was received from Department of Medical Microbiology, University Medical Center Utrecht, the Netherlands. […] Synthesized peptides were solubilized to concentrations of 10.0-0.1 mg/ml in 0.1% (vol/vol) trifluoroacetic acid and stored at −20° C. until use. […] Bacteriocin activity was determined by microtiter plate assay as previously described (Holo et al., 1991, J. Bacteriol., 173:3879-3887). The MIC was defined as the minimal bacteriocin concentration that inhibited the growth of the indicator strain by at least 50% (50% of the turbidity of the control culture without bacteriocin) in 200 μl culture. CD Spectroscopy Circular dichroism (CD) spectra were recorded using a Jasco J-810 spectropolarimeter (Jasco International Co) calibrated with D-camphor-10-sulfonate (Icatayama Chemical). All measurements were made using a quartz cuvette (Sterna) with 0.1 cm path length. Samples were scanned five times with a scanning rate of 50 nm/min with a bandwidth of 0.5 nm and response time of 1 s over the wavelength range 190-250 nm. Spectra were recorded at different (30 and 50%) trifluoroethanol (TFE) (Aldridge) concentrations at 25° C. The approximate α-helical content of the protein was estimated from its molar ellipticity at 222 nm (Scholtz et al., 1991, Biopolymers 31:1463-1470). NMR Spectroscopy The experiments were run on a sample containing 1.0 mM EntK1, 50% D3-TFE (99.5% D) (Aldrich), Milli-Q water and 0.2 mM of 4,4-dimethyl-4-silapentane-1-sulfonic acid (DSS) (Larodan). 2D NOESY (Jeener et al., 1979, J. Magn. Reson., 71:4546-4553), 2D TOCSY (Braunschweiler and Ernst, 1983, J. Magn. Reson., 53:521-528), 2D DQCOSY, ^15N-HSQC (Davis et al., 1992, J. Magn. Reson., 98:207-216) and ^13C-HSQC (Hurd, 1991, J. Magn. Reson., 91:648-653) were recorded. The data was acquired on a 600 MHz Bruker Avance II spectrometer with four channels and a 5 mm TCI cryoprobe (Bruker Biospin). NOESY spectra with mixing times between 120 ms and 300 ms were obtained for both samples. TOCSY mixing times of 15-80 ms were used. The experiments were run at 298.15 K. Spectra were processed using the Topspin program (Bruker Biospin). 4,4-dimethyl-4-silapentane-1-sulfonic acid (DSS) was used as a chemical shift standard, and ^15N and ^13C data were referenced using frequency ratios as described in (Wishart et al., 1995, J. Biomol. NMR., 6:135-140). For visualization, assignment and integration of the spectra the computer program CARA was used (Keller, 2004, The Computer Aided Resonance Assignment Tutorial. CANTINA Verlag, Goldau, Switzerland). The spectra were assigned using standard methods. Dihedral angle restraints were obtained from the chemical shift values using the program TALOS-N(Shen and Bax, 2013, J. Biomol. NMR, 56:227-241). Nuclear Overhauser effect (NOE) distance restraints were calculated from the peak volumes in the NOESY spectra with NOESY mixing time of 200 ms. All structure calculations were made using the structure calculation program CYANA 2.1 (Guntert et al., 1997, J. Mol. Biol., 273:283-298; Herrmann et al., 2002, J. Mol. Biol., 319:209-227). The annealing macro in CYANA calculated 100 structures. The 20 structures with the lowest energy were kept and analyzed further. The root-mean-square deviation (RMSD) was calculated and the structures were visualized using MolMol (Koradi et al., 1996, J. Mol. Graph., 14:51-55, 29-32). Generation of bacteriocin resistant mutants of E. faecalis and E. faecium.

E. faecalis LMGT 3370 = system: E. faecalis LMGT 3370
Protocol: as §3

S. aureus LMGT 3289 = system: S. aureus LMGT 3289
Protocol: as §3

B. cereus LMGT 3025 = system: B. cereus LMGT 3025
Protocol: as §3

E. faecium LMGT 3313 = system: E. faecium LMGT 3313
Protocol: as §3

S. aureus LMGT 3272 = system: S. aureus LMGT 3272
Protocol: as §3

E. faecium LMGT 3104 = system: E. faecium LMGT 3104
Protocol: as §3

L. cremoris LMGT 2057 = system: L. cremoris LMGT 2057
Protocol: as §3

E. faecium LMGT 3110 = system: E. faecium LMGT 3110
Protocol: as §3

Sequence	MIC (Listeria spp. (3)) [µg/mL]	MIC (E. faecium (2)) [µg/mL]	MIC (E. faecalis (2)) [µg/mL]	MIC (E. hirae (4)) [µg/mL]	appearance of resistant mutants at growth temperature [1]	MIC 50 (E. faecium AH137) [µM]	MIC 50 (E. faecalis LMGT 3370) [µM]	MIC 50 (S. aureus LMGT 3289) [µM]	MIC 50 (B. cereus LMGT 3025) [µM]	MIC 50 (E. faecium LMGT 3313) [µM]	MIC 50 (S. aureus LMGT 3272) [µM]	MIC 50 (E. faecium LMGT 3104) [µM]	MIC 50 (L. cremoris LMGT 2057) [µM]	MIC 50 (E. faecium LMGT 3110) [µM]
MKFKFNPTGTIVKKLTQYEIAWFKNKHGYYPWEIPRC [EntK1]	>50	<0.02 to 0.4	>25	0.2 to 0.8	only appeared at 30 °C but not at 45 °C	0.01	5.5	>5.5	>5.5	0.085	>5.5	0.01	>5.5	0.045
MKTILRFVAGYDIASHKKKTGGYPWERGKA [LsbB, reference compound]	–	–	–	–	–	–	>7	>7	>7	>7	>7	>7	>7	>7
MLAKIKAMIKKFPNPYTLAAKLTTYEINWYKQQYGRYPWERPVA [EntEJ97]	12.5 to 25	0.8 to 1.6	3.1	0.4 to 1.6	only appeared at 30 °C but not at 45 °C	0.075	0.145	>4.7	2.3	0.145	1.175	0.145	0.145	0.295
